The values below come from US4918099A, “Drug, preparation and use thereof” (priority 1985, dated 1990).

Structures are written as SMILES. “Also recorded” adds a separate entry of the source.

Series [1] can be described thus: Blood sugar lowering effect of brazilin in streptozotocin diabetic SD rats. The class given is in vivo. On the procedure: By intraperitoneally administering streptozotocin (70 mg per 1 kg body weight in 0.1M of citrate buffer solution, pH 4.0) diabetes was induced in SD rats. 20 days after the injection of streptozotocin the blood sugar values of the laboratory animals were measured. The hyperglycemic rats were divided into two groups, viz. into a control group and a test group. For 10 days a dose of 110 mg of brazilin per kg body weight was daily administered to the animals of the test group. Then, the blood sugar values were measured again.

Series [2] can be described thus: Increase of the peripheral insulin action in diabetic mice. The class given is in vivo. On the procedure: Diabetic mice were divided into a control group and a test group. A dose of 100 mg of brazilin per kg body weight was daily administered to the animals of the test group; instead of brazilin, the same amount of saline solution was injected intraperitoneally to the animals of the control group.
After 30 test days, the body weight of the animals of the test group was higher and the blood sugar values of these animals were lower as compared to the diabetic animals of the control group.
On the 30th test day, the animals were made to fast for 5 h; thereupon, they were injected intravenously with 0.46 mU/g of NPH insulin. Then, the blood sugar values were measured at respective intervals of 5 min.

Series [3] relates to insulin receptors. As to the kind of experiment: 125I-insulin binding to erythrocytes of brazilin treated diabetic mice. On the procedure:
For interpreting these findings, further tests were made with the aim to find out whether brazilin changes the affinity of the insulin receptors or can possibly increase the number of the insulin receptors.
From the laboratory animals of the above-mentioned control group (diabetic mice) and the test group (diabetic brazilin treated mice) erythrocytes (2.6×10^9 /ml) were taken, ^125 I-insulin was bound thereto (85 pM^125 I), and thereupon incubated in the presence of increasing amounts of unlabelled insulin (32 pM to 1.8 / μm) at 15° C. for 120 min. The amount of specifically bound ^125 I-insulin was then determined by subtracting the non-specifically bound insulin (10 ng/ml). The results obtained are shown in the graph of FIG. 6.

For series [4], the system named is thrombin stimulated platelets. As to the kind of experiment: Malon dialdehyde (MDA) production by thrombin stimulated platelets. The series is classed as in vivo, rats. The text has this: Thromboxane A2 is the potent substance inducing platelet aggregation. MDA is formed through the same enzyme system as thromboxane A2. Inhibition of MDA production may be due to the following factors:
If an inhibiting action on MDA is detectable but no significant influence on the prostacyclin production can be detected, a selective inhibiting action on thromboxane A2 may be inferred.
Rats were divided into four test groups, viz.
Group B: Normal rats (8 laboratory animals) to which an aqueous brazilin solution (comprising 110 mg of brazilin per kg body weight) was daily administered from the 20th to the 30th day
Group D: Diabetic rats (10 laboratory animals); for inducing diabetes, a dose of 70 mg of streptozotocin per kg body weight in 0.1M citrate buffer solution (pH 4.0) was administered intraperitoneally to normal rats on the 1st test day. From the 20th to the 30th day of the test aqueous brazilin solution (comprising 110 mg of brazilin per kg body weight) was daily administered orally to these diabetic rats. (Instead of an aqueous brazilin solution, the same amount of distilled water was administered to the laboratory animals of the groups A and C from the 20th to the 30th day.)
After expiration of the 30th test day, the test animals were sacrificed, and the MDA production was determined by means of thrombin stimulated platelets.

Series [5] deals with lysosomal glycosidases. Nature of the series: Normalizing effect on lysosomal glycosidases (overall). The conditions noted are these: kidney, diabetic mice. The series is classed as in vivo. The text has this:
Possibly, the lysosomal glycosidases active in the kidneys are involved in the micro-angiopathy accompanying diabetes mellitus. Therefore, the lysosomal glycosidase activities upon administration of brazilin and full extract were examined.
A number of mice was divided into three groups. Group I, which was used as control group, remained untreated. To the rest of the mice diabetes was induced by administering alloxan. Part of these diabetic mice remained untreated (diabetic control group II); to the rest of the diabetic mice a dose of 100 mg of brazilin per kg body weight was administered daily. After a test period of 10 and 30 days, respectively, kidney tissue was taken from the laboratory animals and the enzyme fraction was determined. In particular, incubation was carried out for 30 min at 37° C., the reaction was stopped by adding 0.05M glycine-NaOH buffer solution (pH 10.4), centrifugation was carried out at 3000 U/min for 10 min, and the amount of p-nitrophenol formed per min and per mg of protein was determined spectrophotometrically at 410 nm at the supernatant.

Series [6] concerns blood viscosity. Nature of the series: Blood viscosity. The series is classed as in vivo, rats. On the procedure: Increased blood viscosity and reduced erythrocyte deformability are typical pathological states of diabetic subjects. The effect of brazilin administration to diabetic laboratory animals (rats) on the blood viscosity and erythrocyte deformability of these animals was examined.
(§1) For administering brazilin, the laboratory animals were daily injected intraperitoneally with a dose of 100 mg of brazilin per kg body weight for 10 days. For inducing diabetes, a dose of 175 mg of alloxan per kg body weight was administered intraperitoneally.
The blood viscosity was determined by means of heparinized blood samples relative to distilled water at 37°±0.5° C. The time interval required by 2 ml of liquid to pass between two points of a narrow glass capillary was determined.

Series [7] has as its system erythropoesis. As to the kind of experiment: Effect on erythropoesis. Further details: species or system rats. As to conditions: rat, in vivo. On the procedure:
as §1

Series [8] deals with plasmalipid. The conditions noted are these: spontaneously hypertensive rats; Fette-Seifen-Anstrichmittel 87, 74-76 (1985); cited from earlier work.
[9] abbreviates: diabetic mice, 100 mg/kg daily, 30 days.

Turning to `Oc1ccc2c(c1)OC[C@]1(O)Cc3cc(O)c(O)cc3[C@H]21` [brazilin], the “Blood sugar” value in series [1] (diabetic rats, 30 days after onset of diabetes, 110 mg/kg daily 10 days, before treatment (20 days) 266 ± 16.7, diabetic control 337 ± 45.6) came out at 165 ± 42.7 mg/100 ml; in series [1] (normal rats, brazilin treated, 30 days, normal control 79 ± 22.2) it was 77 ± 20.3 mg/100 ml. The “lowering of the blood sugar values” in series [1] (streptozotocin diabetic rats, 110 mg/kg daily) is “significant lowering of the blood sugar values”. Moreover, the “blood sugar after i.v. NPH insulin” value in series [2] (brazilin treated diabetic mice, 0.46 mU/g NPH insulin, day 30, 5 h fasted (FIG. 5)) is on record as “marked decrease of the blood sugar values”. Besides, the “blood sugar values vs. diabetic control” value in series [2] (setting [9]) is on record as “lower”. Besides, the “body weight vs. diabetic control” value in series [2] (setting [9]) was “higher”. The “affinity of the insulin receptors” value in series [3] (erythrocytes, 15° C., 120 min, treated vs. control (FIGS. 6, 7)) is recorded as “no significant affinity differences”. Moreover, the “number of insulin receptors” value in series [3] (peripheral erythrocytes, treated vs. control) is “increase of the number of the peripheral insulin receptors”. Also, the MDA in series [4] (Group B, thrombin 0,2 I. un., normal control 4.16) amounted to 0.58 ± 0.30 nmol/10 platelets; in series [4] (Group B, thrombin 1,0 I. un., normal control 2.46) it was 1.02 ± 0.48 nmol/10 platelets; in series [4] (Group D, thrombin 0,2 I. un., diabetic control 2.86) it was 0.76 ± 0.21 nmol/10 platelets; in series [4] (Group D, thrombin 1,0 I. un., diabetic control 3.38), 1.10 ± 0.31 nmol/10 platelets; in series [4] (normal rats + brazilin 110 mg/kg daily (Group B), thrombin 5,0 I. un., normal control 5.16), 2.20 ± 0.58 nmol/10 platelets. The “inhibition of MDA production” value in series [4] (rats, 110 mg/kg daily) is listed as “inhibiting effect on MDA production”. Moreover, the “effect on the lysosomal glycosidase activity” value in series [5] is listed as “normalizing effect”. For the same compound, the Viscosity in series [6] (alloxan diabetic rats + brazilin, P < 0.05 vs. diabetic control (1.62)) is on record as 1.52 ± 0.07 cP; in series [6] (normal rats + brazilin 100 mg/kg i.p. 10 days, 37° C., normal 1.45) it was 1.40 ± 0.06 cP. Besides, the “effect on blood viscosity of diabetic animals” value in series [6] (diabetic rats vs. control group) is on record as “significant decrease of the blood viscosity; also recorded: significant decrease (P<0.05) of blood viscosity”. Further, in series [6] (normal + brazilin vs. normal), the “effect on blood viscosity of normal animals” value was “No statistical differences”. For the same compound, in series [7], the effect on erythropoesis result is reported as “no effect on erythropoesis”. Further, the plasmalipid-reducing effect entry in series [8] is listed as “plasmalipid-reducing effect”.
